# According to US10674729B2, “Synergistic combination of 3-IODO-2-propynyl-butylcarbamate and diamine” (priority 2016, dated 2020):
# Legend:
# Assay in all cases: MIC and synergy testing in tryptic soy broth (turbidity reading)
# Assay type in all cases: cell-based
# [1] = test system: Staphylococcus aureus (DSMZ#799); conditions: 48 hours, 30° C., TSB
# Procedure: (§1) The synergism of the biocides combination of the present invention was determined using the method described by Kull, F. C., et. al in Applied Microbiology 9:538-541 (1961). The formula to calculate the synergy index (SI) is Qa/QA+Qb/QB=SI Where • QA=concentration of compound A in ppm, acting alone produced an end point (growth/no growth) • Qa=concentration of compound A in ppm, in the mixture, which produced an end point (growth/no growth) • QB=concentration of compound B in ppm, acting alone produced an end point (growth/no growth) • Qb=concentration of compound B in ppm, in the mixture, which produced an end point (growth/no growth) […]
# (§2) • 1. The test was executed with a Hamilton MLStarPlus robot using automated turbidity reading with BioTek Synergy H4 plate reader. • 2. […]
# (§3) • The cultures were maintained as glycerol stocks at −80° C. in cryovials, are thawed and then 100 μl spread on MEA (malt extract agar) petri dishes. • The yeast strain plates were incubated at 28° C. for 1-2 days then harvested with buffer pH 5.0. • Based on total viable count results, the inoculum was prepared. • 7. […] Reading of the results was carried out by measuring absorbance at 600 nm for each sample at the beginning of the test (tzero) and after incubation (tendpoint). tendpoint was chosen at 48 hours for bacteria and 72 hours for yeast. […]
# [2] = test system: Pseudomonas aeruginosa (DSMZ#939); conditions: 48 hours, 30° C., TSB
# Procedure: as §1, §2, §3
# [3] = test system: Candida albicans (DSMZ#1386); conditions: 72 hours, 30° C., TSB
# Procedure: as §1, §2, §3
smiles,measurement,setting,value
"CCCCNC(=O)OCC#CI [IPBC, 3-Iodo-2-propynyl-butylcarbamate]","MIC, single biocide",[1],21.6 ppm
same,"MIC, single biocide",[2],1400.0 ppm
same,"MIC, single biocide",[3],6.6 ppm
